Data from patent US20100291168A1, “ANTIMICROBIAL FORMULATIONS COMPRISING A COMBINATION OF A PYRIDINE THIOL AND A BIS-QUINOLINIUM SALT” (priority 2007, published 2010).

What was measured:
P. acnes NCTC 737 [1] = assay: Disc diffusion / synergy disc diffusion assay ((S)DDA); type: cell-based, Propionibacterium acnes
Method: (§1) The propionibacteria were cultured and maintained on Wilkins-Chalgren Anaerobe Medium (agar and broth) at pH 6.0; all cultures were incubated anaerobically at 37° C. for 72 hours.
(c) Disc Diffusion Assay (DDA)
This is an internationally recognised standard method for qualitatively assessing the antimicrobial activity of a compound.
A sterile paper disc was impregnated with a sample of the test compound in a suitable solvent and 30 minutes allowed for the solvents to evaporate (where possible). The disc was then placed on an agar plate onto which the test micro-organism had been inoculated. The plate was then incubated under the conditions described above, following which it was examined visually for signs of microbial growth. […] The diameter of this zone of “inhibition” was measured using a ProtoCOL™ automated zone sizer (Synbiosis, Cambridge, UK).
(d) Synergy Disc Diffusion Assay (SDDA)
This is a variation on the DDA method, in which two compounds are tested together for their combined antimicrobial activity.
Two test compounds A and B were placed on a single paper disc and the above described DDA procedure repeated.
Mixtures of the two test compounds were then subjected to SDDA assays as described above.
For the (S)DDA experiments, 50 μg of the DC was loaded onto each disc, and 200 μg of the ZP. All the (S)DDA experiments were conducted in triplicate.
For the (S)DDA experiments, 50 μg of the DI was loaded onto each disc, and 200 μg of the ZP. The DI and ZP were both dissolved in DMSO.
All the (S)DDA experiments were conducted in triplicate.

P. acnes NCTC 737 [2] = assay: Minimum Bactericidal Concentration (MBC) assay; type: cell-based, Propionibacterium acnes; details: for MBC: sub-culture after MIC assay
Method: as §1
(b) Minimum Bactericidal Concentration (MBC) Assay
This assay, normally carried out after an MIC assay, determines the minimum concentration of a compound that is lethal to the micro-organism being tested.
These samples were then individually sub-cultured on antibiotic-free agar medium, under the incubation conditions described above. Following incubation they were examined visually for bacterial growth.
The ratio of MIC to MBC should ideally be as close to 1 as possible.
(§2) The following experiments all used P. acnes NCTC 737 as the test organism.
(§3) MIC, MBC and DDA assays, as described above, were carried out using the test compounds (a) dequalinium chloride (DC), dissolved in ethanol and (b) zinc pyrithione (ZP), dissolved in DMSO. Both compounds were sourced from Sigma-Aldrich, UK.
(§4) The general method of Example 1 was repeated using another bis-quinolinium salt, dequalinium iodide (DI), which was also obtained from Sigma-Aldrich, UK. This compound was tested against P. acnes NCTC 737, both alone and in combination with ZP.

[3] = system: Cor. mucifaciens ATCC 700355; assay: (S)DDA; type: cell-based, Corynebacterium mucifaciens
Method: (§5) The activity of a DC/ZP combination was determined, using (S)DDAs, against two further test micro-organisms, namely C. difficile ATCC 7000057 and Cor. mucifaciens ATCC 700355. A DI/ZP combination was also tested against Cor. mucifaciens.
(§6) In these tests, 50 μg (for C. difficile) or 200 μg (for Cor. mucifaciens) of the DC was loaded onto each disc. The DI and the ZP were both loaded at 200 μg per disc. All the (S)DDA experiments were conducted in triplicate.

[4] = system: C. difficile ATCC 7000057; assay: (S)DDA; type: cell-based, Clostridium difficile; details: 50 μg DC or 200 μg ZP per disc
Method: as §5, §6

P. acnes PRP-101 = type: cell-based, Propionibacterium acnes; details: P. acnes PRP-101 (Tet/MLS); 50 μg DC or 200 μg ZP per disc
Method: (§7) Some of these strains have known antibiotic resistance.
(§8) All the experiments were conducted in triplicate.

P. acnes PRP-026 = type: cell-based, Propionibacterium acnes; details: P. acnes PRP-026 (MLS); 50 μg DC or 200 μg ZP per disc
Method: as §7, §8

P. acnes PRP-023 = type: cell-based, Propionibacterium acnes; details: P. acnes PRP-023 (MLSK); 50 μg DC or 200 μg ZP per disc
Method: as §7, §8

P. acnes PRP-102 = type: cell-based, Propionibacterium acnes; details: P. acnes PRP-102 (Tet/MLS); 50 μg DC or 200 μg ZP per disc
Method: as §7, §8

P. acnes PRP-059 = type: cell-based, Propionibacterium acnes; details: P. acnes PRP-059 (MLS); 50 μg DC or 200 μg ZP per disc
Method: as §7, §8

P. acnes PRP-004 = type: cell-based, Propionibacterium acnes; details: P. acnes PRP-004 (Tet); 50 μg DC or 200 μg ZP per disc
Method: as §7, §8

P. acnes PRP-008 = type: cell-based, Propionibacterium acnes; details: P. acnes PRP-008 (Clin); 50 μg DC or 200 μg ZP per disc
Method: as §7, §8

P. acnes PRP-017 = type: cell-based, Propionibacterium acnes; details: P. acnes PRP-017 (MLS); 50 μg DC or 200 μg ZP per disc
Method: as §7, §8

P. acnes PRP-002 = type: cell-based, Propionibacterium acnes; details: P. acnes PRP-002 (Tet/MLS); 50 μg DC or 200 μg ZP per disc
Method: as §7, §8

P. acnes PRP-003 = type: cell-based, Propionibacterium acnes; details: P. acnes PRP-003 (Tet); 50 μg DC or 200 μg ZP per disc
Method: as §7, §8

P. acnes PRP-068 = type: cell-based, Propionibacterium acnes; details: P. acnes PRP-068 (Ery); 50 μg DC or 200 μg ZP per disc
Method: as §7, §8

P. acnes PRP-053 = type: cell-based, Propionibacterium acnes; details: P. acnes PRP-053 (Tet/MLS); 50 μg DC or 200 μg ZP per disc
Method: as §7, §8

P. acnes NCTC 737 [5] = assay: Minimum Inhibitory Concentration (MIC) assay; type: cell-based, Propionibacterium acnes; details: for MIC: anaerobic, 37° C., 72 hours
Method: as §1
(a) Minimum Inhibitory Concentration (MIC) Assay
This is a standard international method for quantitatively assessing the antimicrobial activity of a compound in a liquid medium. The method used a sterile 96-well microtitre plate, capable of holding about 200 μl of liquid per well. The wells contained liquid culture medium and ranges of decreasing concentrations of the relevant test compound in doubling dilutions (eg, 1000, 500, 250, 125 . . . μg/ml, etc. down to 0.49 μg/ml). The culture medium was as described above.
The wells were inoculated with a liquid suspension of freshly grown micro-organism and incubated under the conditions described above. After incubation, the microtitre plate was examined visually (with the aid of a light box) for cloudiness in each well, which would indicate microbial growth. The MIC value was recorded as the lowest concentration of test compound required to inhibit microbial growth, ie, the lowest concentration for which the liquid in the well remained clear.
The assays were conducted in duplicate and included both negative (culture medium with no micro-organisms) and positive (culture medium plus diluting solvent plus micro-organism) controls.
as §2, §3, §4

P. acnes PRP-046 = assay: (S)DDA; type: cell-based, Propionibacterium acnes; details: P. acnes PRP-046 (resistance None); 50 μg DC or 200 μg ZP per disc
Method: as §7, §8

P. acnes PRP-007 = assay: (S)DDA; type: cell-based, Propionibacterium acnes; details: P. acnes PRP-007 (Clin); 50 μg DC or 200 μg ZP per disc
Method: as §7, §8

P. granulosum PRP-044 = type: cell-based, Propionibacterium granulosum; details: P. granulosum PRP-044 (MLS); 50 μg DC or 200 μg ZP per disc
Method: as §7, §8

P. granulosum PRP-021 = type: cell-based, Propionibacterium granulosum; details: P. granulosum PRP-021 (MLS); 50 μg DC or 200 μg ZP per disc
Method: as §7, §8

P. granulosum PRP-019 = type: cell-based, Propionibacterium granulosum; details: P. granulosum PRP-019 (MLSK); 50 μg DC or 200 μg ZP per disc
Method: as §7, §8

P. granulosum PRP-006 = type: cell-based, Propionibacterium granulosum; details: P. granulosum PRP-006 (MLS); 50 μg DC or 200 μg ZP per disc
Method: as §7, §8

P. granulosum PRP-005 = type: cell-based, Propionibacterium granulosum; details: P. granulosum PRP-005 (MLSK); 50 μg DC or 200 μg ZP per disc
Method: as §7, §8

P. granulosum PRP-043 = type: cell-based, Propionibacterium granulosum; details: P. granulosum PRP-043 (MLS); 50 μg DC or 200 μg ZP per disc
Method: as §7, §8

P. acnes PRP-039 = type: cell-based, Propionibacterium acnes; details: P. acnes PRP-039 (Tet/MLS); 50 μg DC or 200 μg ZP per disc
Method: (§9) Other propionibacterial strains were also tested, as described in Example 4 below. These included certain antibiotic resistant propionibacteria, such as the two P. acnes strains designated PRP-010 and PRP-039 which are resistant respectively to macrolides-lincosamides-streptogramins-ketolides (MLSK) and to macrolides-lincosamides-streptogramins (MLS) and tetracycline—in other words, PRP-010 is resistant to erythromycin and clindamycin, and PRP-039 to erythromycin, clindamycin and tetracycline.
as §7, §8

P. acnes PRP-010 = type: cell-based, Propionibacterium acnes; details: P. acnes PRP-010 (MLSK); 50 μg DC or 200 μg ZP per disc
Method: as §9, §7, §8

P. granulosum PRP-055 = assay: (S)DDA; type: cell-based, Propionibacterium granulosum; details: P. granulosum PRP-055 (resistance None); 50 μg DC or 200 μg ZP per disc
Method: as §7, §8

P. granulosum NCTC 11865 = assay: (S)DDA; type: cell-based, Propionibacterium granulosum; details: P. granulosum NCTC 11865 (resistance None); 50 μg DC or 200 μg ZP per disc
Method: as §7, §8

[6] = Example 1, zone of inhibition diameter, 50 μg DC or 200 μg ZP per disc
[7] = Table 6, 200 μg DC or 200 μg ZP per disc
[8] = Example 3, zone of inhibition diameter, 50 μg DI or 200 μg ZP per disc, both in DMSO
[9] = Table 7, 200 μg DI or 200 μg ZP per disc

Row | Compound | DDA (P. acnes NCTC 737 [1]; [6]) | MIC/MBC ratio (P. acnes NCTC 737 [2]) | MBC (P. acnes NCTC 737 [2]) | DDA [3, 7] | DDA [4] | DDA (P. acnes PRP-101) | DDA (P. acnes PRP-026) | DDA (P. acnes PRP-023) | DDA (P. acnes PRP-102) | DDA (P. acnes PRP-059) | DDA (P. acnes PRP-004) | DDA (P. acnes PRP-008) | DDA (P. acnes PRP-017) | DDA (P. acnes PRP-002) | DDA (P. acnes PRP-003) | DDA (P. acnes PRP-068) | DDA (P. acnes PRP-053) | activity of compound alone (MIC, MBC, DDA data) (P. acnes NCTC 737 [5]) | MIC (P. acnes NCTC 737 [5]) | DDA (P. acnes PRP-046) | also measured
1 | Cc1cc(N)c2ccccc2[n+]1CCCCCCCCCC[n+]1c(C)cc(N)c2ccccc21.[Cl-].[Cl-] [DC, dequalinium chloride] | 16.68 mm | 0.5 | 15.6 µg/mL | 17.2 mm | 0.0 mm | 16.96 mm | 19.01 mm | 19.32 mm | 21.68 mm | 19.42 mm | 20.45 mm | 19.73 mm | 17.27 mm | 20.04 mm | 21.27 mm | 20.45 mm | 21.38 mm | active | 7.8 µg/mL | 21.38 mm | DDA (P. acnes PRP-007): 18.91 mm; DDA (P. granulosum PRP-044): 17.37 mm; DDA (P. granulosum PRP-021): 27.95 mm; DDA (P. granulosum PRP-019): 18.91 mm; DDA (P. granulosum PRP-006): 26.82 mm; DDA (P. granulosum PRP-005): 20.55 mm; DDA (P. granulosum PRP-043): 23.02 mm; DDA (P. acnes PRP-039): 28.98 mm; DDA (P. acnes PRP-010): 17.37 mm; DDA (P. granulosum PRP-055): 29.08 mm; DDA (P. granulosum NCTC 11865): 14.08 mm
2 | Cc1cc(N)c2ccccc2[n+]1CCCCCCCCCC[n+]1c(C)cc(N)c2ccccc21.[I-].[I-] [DI, dequalinium iodide] | – | 0.03 | 125 µg/mL | – | – | – | – | – | – | – | – | – | – | – | – | – | – | active | 3.9 µg/mL | – | DDA (P. acnes NCTC 737 [1]; [8]): 21.92 mm; DDA [3, 9]: 22.93 mm
3 | zinc pyrithione [ZP] | 15.85 mm | 0.125 | 7.8 µg/mL | 28.14 mm | 20.31 mm | 14.39 mm | 16.24 mm | 17.37 mm | 16.85 mm | 16.34 mm | 12.43 mm | 14.90 mm | 19.01 mm | 25.79 mm | 26.82 mm | 14.90 mm | 29.91 mm | active | 0.98 µg/mL | 35.56 mm | DDA (P. acnes NCTC 737 [1]; [8]): 46.44 mm; DDA [3, 9]: 28.14 mm; DDA (P. acnes PRP-007): 10.79 mm; DDA (P. granulosum PRP-044): 18.50 mm; DDA (P. granulosum PRP-021): 29.70 mm; DDA (P. granulosum PRP-019): 19.73 mm; DDA (P. granulosum PRP-006): 32.58 mm; DDA (P. granulosum PRP-005): 20.04 mm; DDA (P. granulosum PRP-043): 43.37 mm; DDA (P. acnes PRP-039): 29.70 mm; DDA (P. acnes PRP-010): 20.96 mm; DDA (P. granulosum PRP-055): 50.05 mm; DDA (P. granulosum NCTC 11865): 23.95 mm
